Test results: patent US11505548B2, “Heterocyclic compounds and their use for treatment of helminthic infections and diseases” (Celgene Corporation, priority 2019, dated 2022)

System: Onchocerca gutturosa Adult Male Worms
Assay: Onchocerciasis in vitro screening model, worm motility score
Type: cell-based
Details: in vitro; Onchocerca gutturosa adult male worms; class A/B/C; read-out: O. gutturosa activity level (IC50 or MED)

Compound | IC50 [nM]
CC(=O)N(C)c1cccnc1Nc1nc(-c2cc3c(cn2)OC(C)(C)C3)ns1 [Compound 271, N-(2-(3-(2,2-dimethyl-2,3-dihydrofuro [2,3-c]pyridin-5-yl)-1,2,4-thiadiazol-5-ylamino)pyridin-3-yl)-N-methylacetamide] | 500 to 5000
CC(=O)N(C)c1cc(C(F)(F)F)cnc1Nc1nc(-c2cc3c(cn2)OC(C)(C)C3)ns1 [Compound 272, N-(2-(3-(2,2-dimethyl-2,3-dihydrofuro [2,3-c]pyridin-5-yl)-1,2,4-thiadiazol-5-ylamino)-5-(trifluoromethyl)pyridin-3-yl)-N-methylacetamide] | 200 to 500
CC(=O)N(C)c1cc(C(F)(F)F)cnc1Nc1nc(-c2cc3c(cn2)N(C(C)C)CC3)ns1 [Compound 273, N-(2-(3-(1-isopropyl-2,3-dihydro-1H-pyrrolo[2,3-c]pyridin-5-yl)-1,2,4-thiadiazol-5-ylamino)-5-(trifluoromethyl)pyridin-3-yl)-N-methylacetamide] | 200 to 500
Cc1cnc(Nc2nc(-c3cc(OC4COC4)ccn3)ns2)c(C(F)(F)F)c1 [Compound 275, N-(5-methyl-3-(trifluoromethyl)pyridin-2-yl)-3-(4-(oxetan-3-yloxy)pyridin-2-yl)-1,2,4-thiadiazol-5-amine] | 500 to 5000
COC(=O)c1cccnc1Nc1nc(-c2ccc(OC(C)C)cn2)ns1 [Compound 276, methyl 2-(3-(5-isopropoxy-pyridin-2-yl)-1,2,4-thiadiazol-5-ylamino) nicotinate] | 500 to 5000
Cc1cccnc1Nc1nc(-c2ccc(C(=O)N(C)C)cn2)no1 [Compound 277, N,N-dimethyl-6-(5-(3-methylpyridin-2-ylamino)-1,2,4-oxadiazol-3-yl)nicotinamide] | 500 to 5000
Cc1cccnc1Nc1nc(-c2ccc(C#N)cn2)ns1 [Compound 278, 6-(5-(3-methylpyridin-2-ylamino)-1,2,4-thiadiazol-3-yl)nicotinonitrile] | 500 to 5000
CC(=O)N(C)c1cnc(Nc2nc(-c3ncccc3OC(C)C)ns2)c(C(F)(F)F)c1 [Compound 279, N-(6-(3-(3-isopropoxy-pyridin-2-yl)-1,2,4-thiadiazol-5-ylamino)-5-(trifluoro-methyl)pyridin-3-yl)-N-methylacetamide] | 500 to 5000
CC(=O)N(C)c1cc(C(F)(F)F)cnc1Nc1nc(-c2cc3c(cn2)NC(=O)C3(C)C)ns1 [Compound 280, N-(2-(3-(3,3-dimethyl-2-oxo-2,3-dihydro-1H-pyrrolo[2,3-c]pyridin-5-yl)-1,2,4-thiadiazol-5-ylamino)-5-(trifluoromethyl)pyridin-3-yl)-N-methylacetamide] | 500 to 5000
CC(C)Oc1cccnc1-c1nsc(Nc2ncc(C(F)(F)F)cc2C(=O)N(C)C)n1 [Compound 281, 2-(3-(3-isoprop-oxypyridin-2-yl)-1,2,4-thiadiazol-5-ylamino)-N,N-dimethyl-5-(trifluoromethyl) nicotinamide] | 500 to 5000
CC(=O)N(C)c1cnc(Nc2nc(-c3cc(OC(C)C)ccn3)ns2)c(C(F)(F)F)c1 [Compound 285, N-(6-(3-(4-isopropoxy-pyridin-2-yl)-1,2,4-thiadiazol-5-ylamino)-5-(trifluoromethyl)pyridin-3-yl)-N-methylacetamide] | 500 to 5000
CC(C)Oc1ccc(-c2nsc(Nc3ncc(C(F)(F)F)cc3S(=O)(=O)N(C)C)n2)nc1 [Compound 286, 2-(3-(5-isopropoxy-pyridin-2-yl)-1,2,4-thiadiazol-5-ylamino)-N,N-dimethyl-5-(trifluoromethyl) pyridine-3-sulfonamide] | 500 to 5000
CC(=O)N(C)c1cc(C(F)(F)F)cnc1Nc1nc(-c2cc3c(cn2)N(C)C(=O)C3(C)C)ns1 [Compound 287, N-methyl-N-(5-(trifluoromethyl)-2-(3-(1,3,3-trimethyl-2-oxo-2,3-dihydro-1H-pyrrolo[2,3-c]pyridin-5-yl)-1,2,4-thiadiazol-5-ylamino)pyridin-3-yl)acetamide] | 500 to 5000
CC(=O)N(C)c1cnc(Nc2nc(-c3cc(OC(C)C)ccn3)ns2)c(C)c1 [Compound 288, N-(6-(3-(4-isopropoxypyridin-2-yl)-1,2,4-thiadiazol-5-ylamino)-5-methylpyridin-3-yl)-N-methylacetamide] | 500 to 5000
CC(=O)N(C)c1cc(C(F)(F)F)cnc1Nc1nc(-c2cc3c(cn2)N(C)C(C)(C)C3)ns1 [Compound 291, N-methyl-N-(5-(trifluoromethyl)-2-(3-(1,2,2-trimethyl-2,3-dihydro-1H-pyrrolo[2,3-c]pyridin-5-yl)-1,2,4-thiadiazol-5-ylamino)pyridin-3-yl)acetamide] | < 200
CN(C)C(=O)c1cc(C(F)(F)F)cnc1Nc1nc(-c2cc3c(cn2)N(C)C(=O)C3(C)C)ns1 [Compound 292, N,N-dimethyl-5-(trifluoromethyl)-2-(3-(1,3,3-trimethyl-2-oxo-2,3-dihydro-1H-pyrrolo[2,3-c]pyridin-5-yl)-1,2,4-thiadiazol-5-ylamino) nicotinamide] | 500 to 5000
CN(C)C(=O)c1cc(C(F)(F)F)cnc1Nc1nc(-c2cc3c(cn2)N(C)C(C)(C)C3)ns1 [Compound 293, N,N-dimethyl-5-(trifluoromethyl)-2-(3-(1,2,2-trimethyl-2,3-dihydro-1H-pyrrolo[2,3-c]pyridin-5-yl)-1,2,4-thiadiazol-5-ylamino) nicotinamide] | < 200

Compound | IC50 [nM]
CC(=O)N(C)c1cnc(Nc2n[nH]c(-c3cc4c(cn3)N(C(C)C)CC4)n2)c(C(F)(F)F)c1 [Compound 294, N-(6-(5-(1-isopropyl-2,3-dihydro-1H-pyrrolo[2,3-c]pyridin-5-yl)-1H-1,2,4-triazol-3-ylamino)-5-(trifluoromethyl)pyridin-3-yl)-N-methylacetamide] | 500 to 5000
CC(=O)N(C)c1cc(C(F)(F)F)cnc1Nc1n[nH]c(-c2cc3c(cn2)N(C(C)C)CC3)n1 [Compound 295, N-(2-(5-(1-isopropyl-2,3-dihydro-1H-pyrro1o[2,3-c]pyridin-5-yl)-1H-1,2,4-triazol-3-ylamino)-5-(trifluoromethyl)pyridin-3-yl)-N-methylacetamide] | 500 to 5000
CC(C)c1cnc(Nc2nc(-c3cc4c(cn3)OC(C)(C)C4)ns2)cc1C(F)(F)F [Compound 296, 3-(2,2-dimethyl-2,3-dihydrofuro[2,3-c]pyridin-5-yl)-N-(5-isopropyl-4-(trifluoromethyl)pyridin-2-yl)-1,2,4-thiadiazol-5-amine] | < 200
CC(=O)N(C)c1cnc(Nc2nc(-c3ccc(OC(C)C)cn3)ns2)c(C)c1 [Compound 297, N-(6-(3-(5-isopropoxypyridin-2-yl)-1,2,4-thiadiazol-5-ylamino)-5-methylpyridin-3-yl)-N-methylacetamide] | 200 to 500
CC(C)Oc1ccc(-c2nsc(Nc3ncccc3S(=O)(=O)N3CCC3)n2)nc1 [Compound 298, N-(3-(azetidin-1-ylsulfonyl)pyridin-2-yl)-3-(5-isopropoxypyridin-2-yl)-1,2,4-thiadiazol-5-amine] | 200 to 500
CC(=O)N(C)c1cnc(Nc2nc(-c3cc4c(cn3)N(C(C)C)CC4)ns2)c(C(F)(F)F)c1 [Compound 299, N-(6-(3-(1-isopropyl-2,3-dihydro-1H-pyrrolo[2,3-c]pyridin-5-yl)-1,2,4-thiadiazol-5-ylamino)-5-(trifluoromethyl)pyridin-3-yl)-N-methylacetamide] | < 200
CC(=O)N(C)c1cnc(Nc2nc(-c3ccc(OC(C)C)cn3)ns2)c(C(F)(F)F)c1 [Compound 300, N-(6-(3-(5-isopropoxypyridin-2-yl)-1,2,4-thiadiazol-5-ylamino)-5-(trifluoromethyl)pyridin-3-yl)-N-methylacetamide] | 500 to 5000
CC(=O)N(C)c1cc(C(F)(F)F)cnc1Nc1nc(-c2cc(C(C)C)ccn2)ns1 [Compound 301, N-(2-(3-(4-isopropylpyridin-2-yl)-1,2,4-thiadiazol-5-ylamino)-5-(trifluoromethyl)pyridin-3-yl)-N-methylacetamide] | < 200
CC(=O)N(C)c1nccnc1Nc1nc(-c2cc3ccn(C(C)C)c3cn2)ns1 [Compound 302, N-(3-(3-(1-isopropyl-1H-pyrrolo[2,3-c]pyridin-5-yl)-1,2,4-thiadiazol-5-ylamino)pyrazin-2-yl)-N-methylacetamide] | < 200
CNc1nccnc1Nc1nc(-c2cc3ccn(C(C)C)c3cn2)ns1 [Compound 303, N2-(3-(1-isopropyl-1H-pyrrolo[2,3-c]pyridin-5-yl)-1,2,4-thiadiazol-5-yl)-N3-methylpyrazine-2,3-diamine] | < 200
CC(=O)N(C)c1cc(C(F)(F)F)cnc1Nc1nc(-c2cc3c(cn2)CCN3C(C)C)ns1 [Compound 304, N-(2-(3-(1-isopropyl-2,3-dihydro-1H-pyrrolo[3,2-c]pyridin-6-yl)-1,2,4-thiadiazol-5-ylamino)-5-(trifluoromethyl)pyridin-3-yl)-N-methylacetamide] | < 200
Cc1ccnc(Nc2nsc(-c3ncccc3C)n2)c1 [Compound 305, 5-(3-methyl-pyridin-2-yl)-N-(4-methylpyridin-2-yl)-1,2,4-thiadiazol-3-amine] | < 200
CC(=O)N(C)c1cc(C(F)(F)F)cnc1Nc1nc(-c2cc(OC3CCOCC3)ccn2)ns1 [Compound 306, N-methyl-N-(2-(3-(4-(tetrahydro-2H-pyran-4-yloxy)pyridin-2-yl)-1,2,4-thiadiazol-5-ylamino)-5-(trifluoromethyl)pyridin-3-yl)acetamide] | < 200
CN1CCc2cc(-c3nsc(Nc4ncccc4S(=O)(=O)N(C)C)n3)ncc21 [Compound 307, N,N-dimethyl-2-(3-(1-methyl-2,3-dihydro-1H-pyrrolo[2,3-c]pyridin-5-yl)-1,2,4-thiadiazol-5-ylamino) pyridine-3-sulfonamide] | 500 to 5000
CC(C)Oc1ccnc(-c2nsc(Nc3ncccc3S(=O)(=O)N(C)C)n2)c1 [Compound 308, 2-(3-(4-isoprop-oxypyridin-2-yl)-1,2,4-thiadiazol-5-ylamino)-N,N-dimethyl-pyridine-3-sulfonamide] | < 200
CC(=O)N(C)c1nccnc1Nc1nc(-c2cc3c(cn2)N(C(C)C)CC3)ns1 [Compound 309, N-(3-(3-(1-isopropyl-2,3-dihydro-1H-pyrrolo[2,3-c]pyridin-5-yl)-1,2,4-thiadiazol-5-ylamino)pyrazin-2-yl)-N-methylacetamide] | < 200
